Laboratory results as given in patent US12655116B2, “Substituted isophthalic acid diamides” (Bayer Aktiengesellschaft, priority 2020, dated 2026).

Assays:
VIOTR [1] = assay: Pre-emergence herbicidal action against VIOTR; type: in vivo, Viola tricolor; conditions: dosage 80 g/ha
Summary of the method: (§1)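 Visual rating at 3 weeks vs untreated pots; 0–100% scale, 100% = plants died. Treatment: aqueous WP/EC spray onto covering soil, 600–800 l/ha, 0.2% wetter, seeds in sandy loam.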

ALOMY [2] = assay: Pre-emergence herbicidal action against ALOMY; type: in vivo, Alopecurus myosuroides; conditions: 80 g/ha, pre-emergence, scored visually after 3 weeks vs untreated controls (100% = plants have died, 0% = like control plants)
Summary of the method: as §1

MATIN = assay: Pre-emergence herbicidal action against MATIN; type: in vivo, Matricaria inodora
Summary of the method: as §1

ECHCG [3] = assay: Pre-emergence herbicidal action against ECHCG; type: in vivo, Echinochloa crus-galli; conditions: 80 g/ha
Summary of the method: as §1

POLCO = assay: Pre-emergence herbicidal action against POLCO; type: in vivo, Polygonum convolvulus; conditions: dosage 80 g/ha
Description: Seeds of monocotyledonous and dicotyledonous weed plants and crop plants are laid out in sandy loam soil in wood-fiber pots and covered with soil. The compounds of the invention, formulated in the form of wettable powders (WP) or as emulsion concentrates (EC), are then applied to the surface of the covering soil in the form of an aqueous suspension or emulsion at a water application rate equivalent to 600 to 800 l/ha, with addition of 0.2% wetting agent. After the treatment, the pots are placed in a greenhouse and kept under good growth conditions for the trial plants. The damage to the test plants is scored visually after a test period of 3 weeks by comparison with untreated controls (herbicidal activity in percent (%): 100% activity=the plants have died, 0% activity=like control plants). […] The tables below illustrate, in an illustrative manner, the post-emergence herbicidal action of the compounds of the invention, the herbicidal activity being stated in percent.

AMARE [4] = assay: Pre-emergence herbicidal action against AMARE; type: in vivo, Amaranthus retroflexus
Summary of the method: as §1

ECHCG [5] = assay: Post-emergence herbicidal action against ECHCG; type: in vivo, Echinochloa crus-galli
Summary of the method: (§2)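 Greenhouse pot plants in sandy loam were sprayed at the one-leaf stage, 2 to 3 weeks after sowing, with WP or EC formulations as aqueous suspension or emulsion (600 to 800 l/ha water, 0.2% wetting agent). About 3 weeks later, damage was scored visually against untreated controls as % action (100% = dead, 0% = like control).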

PHBPU [6] = assay: Post-emergence herbicidal action against PHBPU; type: in vivo, Pharbitis purpurea; conditions: dosage 20 g/ha
Summary of the method: as §2

SETVI [7] = assay: Pre-emergence herbicidal action against SETVI; type: in vivo, Setaria viridis
Summary of the method: as §1

AMARE [8] = assay: Post-emergence herbicidal action against AMARE; type: in vivo, Amaranthus retroflexus; conditions: 20 g/ha, visual assessment about 3 weeks after treatment, 100% = plants have died, 0% = like control plants
Summary of the method: as §2

DIGSA [9] = assay: Pre-emergence herbicidal action against DIGSA; type: in vivo, Digitaria sanguinalis
Summary of the method: as §1

PHBPU [10] = assay: Pre-emergence herbicidal action against PHBPU; type: in vivo, Pharbitis purpurea; conditions: dosage 80 g/ha
Summary of the method: as §1

DIGSA [11] = assay: Post-emergence herbicidal action against DIGSA; type: in vivo, Digitaria sanguinalis; conditions: 20 g/ha
Summary of the method: as §2

VERPE [12] = assay: Pre-emergence herbicidal action against VERPE; type: in vivo, Veronica persica
Summary of the method: as §1

ABUTH [13] = assay: Post-emergence herbicidal action against ABUTH; type: in vivo, Abutilon theophrasti; conditions: dosage 20 g/ha, visual assessment about 3 weeks after treatment vs untreated controls
Summary of the method: as §2

VERPE [14] = assay: Post-emergence herbicidal action against VERPE; type: in vivo, Veronica persica; conditions: 20 g/ha
Summary of the method: as §2

VIOTR [15] = assay: Post-emergence herbicidal action against VIOTR; type: in vivo, Viola tricolor; conditions: 20 g/ha
Summary of the method: as §2

SETVI [16] = assay: Post-emergence herbicidal action against SETVI; type: in vivo, Setaria viridis; conditions: dosage 20 g/ha
Summary of the method: as §2

ABUTH [17] = assay: Pre-emergence herbicidal action against ABUTH; type: in vivo, Abutilon theophrasti; conditions: for Pre-emergence action against ABUTH (herbicidal activity): 80 g/ha, scored visually after 3 weeks vs untreated controls (100% = plants have died, 0% = like control plants); for Pre-emergence action against ABUTH (herbicidal activity in percent): dosage 20 g/ha, scored visually after 3 weeks vs untreated controls, 100% = plants have died, 0% = like control plants
Summary of the method: as §1

ALOMY [18] = assay: Post-emergence herbicidal action against ALOMY; type: in vivo, Alopecurus myosuroides; conditions: dosage 20 g/ha, visual assessment about 3 weeks after treatment vs untreated controls
Summary of the method: as §2

[19] = 20 g/ha, scored visually after 3 weeks vs untreated controls, 100% = plants have died, 0% = like control plants
[20] = 80 g/ha, scored visually after 3 weeks vs untreated controls (100% = plants have died, 0% = like control plants)

Compound	Pre-emergence action against VIOTR in % (VIOTR [1])	Pre-emergence action against ALOMY (herbicidal activity) (ALOMY [2])	Pre-emergence action against MATIN in % (MATIN; dosage 20 g/ha)	Pre-emergence action against MATIN in % (MATIN; dosage 80 g/ha)	Pre-emergence action against ECHCG in % (ECHCG [3])	Pre-emergence action against POLCO in % (POLCO)	Pre-emergence action against AMARE in % (AMARE [4]; [19])	Pre-emergence action against AMARE in % (AMARE [4]; [20])	Post-emergence action against ECHCG in % (ECHCG [5]; dosage 20 g/ha)	Post-emergence action against PHBPU in % (PHBPU [6])	Pre-emergence action against SETVI in % (SETVI [7]; dosage 80 g/ha)	Post-emergence action at 20 g/ha against AMARE in % (AMARE [8])	Pre-emergence action against DIGSA in % (DIGSA [9]; dosage 80 g/ha)	Pre-emergence action against PHBPU in % (PHBPU [10])	Post-emergence action against DIGSA (DIGSA [11])	Post-emergence action against ABUTH in % (ABUTH [13])	Post-emergence action against ECHCG in % (ECHCG [5]; dosage 5 g/ha)	Post-emergence action against SETVI in % (SETVI [16])	Pre-emergence action against ABUTH (herbicidal activity) (ABUTH [17])	Pre-emergence action against ABUTH (herbicidal activity in percent) (ABUTH [17])	further results
CCn1nnnc1NC(=O)c1ccc(C(F)(F)F)c(C(=O)NCC2CCCO2)c1Cl (stereo not drawn) [Example 2-141]	90%	90%	80%	90%	80%	80%	100%	100%	80%	80%	100%	80%	90%	80%							Pre-emergence action against SETVI in % (SETVI [7]; dosage 20 g/ha): 90%
CCn1nnnc1NC(=O)c1ccc(C(F)F)c(C(=O)NCCOC)c1Cl [Example 2-156]	100%	100%	100%	100%	100%	90%	100%	100%	90%	90%	100%	90%	100%		80%	90%	90%	80%	100%	100%	Pre-emergence action against VERPE in % (VERPE [12]; dosage 20 g/ha): 80%; Pre-emergence action against VERPE in % (VERPE [12]; dosage 80 g/ha): 100%; Post-emergence action against VERPE in % (VERPE [14]): 90%; Post-emergence action against VIOTR in % (VIOTR [15]): 80%; Pre-emergence action against DIGSA in % (DIGSA [9]; dosage 20 g/ha): 100%; Post-emergence action against ALOMY in % (ALOMY [18]): 90%
CCCNC(=O)c1c(C(F)F)ccc(C(=O)Nc2nnc(C)o2)c1Cl [Example 6-259]	80%	80%	90%	100%	100%	90%	100%	100%	90%		100%	100%	100%	80%	90%	80%	80%	90%	100%	90%	Pre-emergence action against DIGSA in % (DIGSA [9]; dosage 20 g/ha): 100%
